According to US20080253976A1, “Personal Care Compositions Comprising An Antimicrobial Blend of Essential Oils or Constituents Thereof” (priority 2007, published 2008):
Read-outs that look alike come from different tables or passages of the source.

Key:
[1] = biological target: T1, COX-2 (Homo sapiens, UniProt P35354); test: Inhibition of host inflammation factor COX-2; type: biochemical; settings: read-out: COX-2 % inhibition
T1 sequence (P35354 18-604): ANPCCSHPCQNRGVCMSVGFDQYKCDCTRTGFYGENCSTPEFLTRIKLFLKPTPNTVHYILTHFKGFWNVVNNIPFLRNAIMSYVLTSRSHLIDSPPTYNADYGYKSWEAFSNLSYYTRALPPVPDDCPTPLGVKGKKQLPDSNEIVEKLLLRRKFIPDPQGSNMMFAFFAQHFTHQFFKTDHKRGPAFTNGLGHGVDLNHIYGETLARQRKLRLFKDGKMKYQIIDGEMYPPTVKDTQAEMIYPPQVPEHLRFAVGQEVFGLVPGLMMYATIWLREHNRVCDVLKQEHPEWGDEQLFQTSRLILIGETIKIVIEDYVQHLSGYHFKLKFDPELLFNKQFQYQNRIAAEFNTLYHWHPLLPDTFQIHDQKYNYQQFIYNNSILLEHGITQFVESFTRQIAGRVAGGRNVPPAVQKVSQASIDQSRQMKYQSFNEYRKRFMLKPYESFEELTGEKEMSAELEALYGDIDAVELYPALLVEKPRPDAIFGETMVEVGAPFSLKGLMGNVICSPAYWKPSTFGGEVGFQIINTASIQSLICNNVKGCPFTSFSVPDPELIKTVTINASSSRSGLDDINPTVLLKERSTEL
Text: (§1) P. gingivalis is a gram-negative anaerobe implicated in periodontal disease in humans and companion animals. P. gingivalis infects the gingival sulcus, producing a number of virulence factors including bacterial enzymes such as gingipains, METase and Cystalysin. Gingipains act on several immune system molecules, including kinogens, complement factors, immunoglobins, resulting in fluid influx into the sulcus, neutrophil recruitment, and bleeding. The ultimate result is a host inflammatory response characterized by cyclooxygenase (COX) induction, metalloproteinase (MMP) expression, prostaglandin elevation and reactive oxygen elevations which result in tissue damage and bone resorption, eventually leading to tooth detachment. MMP's (including various subtypes, e.g., MMP 1, 2, 3, 8, 9, 12, 13), are host extracellular matrix proteases that contribute to tissue destruction and remodeling. COX enzymes catalyze the conversion of arachidonic acid into prostaglandins, which result in vasodilation, redness, puffiness and pain.
(§2) Where no data are reported is not an indication that the compound/active has no activity; rather that the compound was not tested for that activity.

[2] = test system: MMP (2, 3, 12); test: Inhibition of host inflammation factor MMP (2, 3, 12); type: biochemical; settings: at 200 uM for compounds, 0.001% for oils/extracts
Text: as §1, §2

[3] = test system: PGE2; test: Inhibition of host inflammation factor PGE2; type: cell-based; settings: read-out: PGE2 % inhibition
Text: (§3) Inhibition of the proteolytic action of gingipains on immuno-regulatory proteins should lead to a reduction in the inflammatory host-response and subsequent tissue damage. Other bacterial enzymes, for example, METase and Cystalysin, are involved in degrading sulfur-containing amino acids to produce volatile sulfur compounds (VSC's) such as hydrogen sulfide or methyl mercaptan that lead to bad breath or oral malodor. Inhibition of METase and Cystalysin is thus an important function for oral care agents as are inhibitory activities against key host pro-inflammatory factors including matrix metalloproteinases (MMP's), cyclooxygenases (COX) and prostaglandin (PGE2).
as §2

[4] = test system: oral anaerobic bacterial biofilm containing Fusobacterium nucleatum; test: In vitro biofilm growth inhibition model (30 second exposure, MIC); type: cell-based; settings: lowest concentration that completely inhibited biofilm growth following a 30 second exposure
Description: The method involves forming a bacterial biofilm in a plastic uncoated 12-well tissue culture plate. The culture material is removed from the wells and the biofilm is treated with a test solution or appropriate control usually for 30 seconds. Subsequently, the biofilm is washed twice with sterile saline and fresh medium is placed on the biofilm which is then incubated at 37° C. overnight. The next day, the culture in each well is suspended and the optical density determined to assess biofilm growth.

[5] = test system: Cystalysin; test: Inhibition of bacterial virulence factor Cystalysin; type: biochemical, P. gingivalis; settings: at 200 uM for compounds, 0.001% for oils/extracts
Text: as §1, §3, §2

[6] = biological target: METase (Porphyromonas gingivalis, UniProt Q7MX71); test: Inhibition of bacterial virulence factor METase; type: biochemical, P. gingivalis; settings: read-out: METase % inhibition
Chain of METase (Q7MX71 whole entry): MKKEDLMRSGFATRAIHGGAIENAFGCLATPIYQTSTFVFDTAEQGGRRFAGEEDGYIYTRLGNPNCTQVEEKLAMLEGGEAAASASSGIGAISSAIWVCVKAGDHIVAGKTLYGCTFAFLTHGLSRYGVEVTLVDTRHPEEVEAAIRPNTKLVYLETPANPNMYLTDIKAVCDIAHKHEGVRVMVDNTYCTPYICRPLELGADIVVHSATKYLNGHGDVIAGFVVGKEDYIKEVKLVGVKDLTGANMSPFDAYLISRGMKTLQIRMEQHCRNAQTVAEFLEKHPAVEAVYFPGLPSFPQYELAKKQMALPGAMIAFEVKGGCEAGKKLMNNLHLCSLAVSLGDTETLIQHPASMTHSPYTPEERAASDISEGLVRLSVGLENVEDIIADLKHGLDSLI
Text: as §1, §3, §2

[7] = test system: Gingipain; test: Inhibition of bacterial virulence factor Gingipain; type: biochemical, P. gingivalis; settings: at 200 uM for compounds, 0.001% for oils/extracts
Text: as §1, §2

[8] = test system: Gram Negative Anaerobes (GNA); test: Plaque Chip Assay (PCA), Gram Negative Anaerobes count; type: cell-based, oral bacteria from whole saliva of healthy human donors; settings: vs. water
Description: (§4) In further studies, individual essential oil compounds and blends were evaluated for germ kill efficacy against oral anaerobes. For comparison, a cetyl pyridinium chloride solution (350 ppm) and a commercially available essential oil mouthrinse (Listerine® Cool Mint with ˜0.258% essential oil level) were tested.
(§5) Aqueous solutions (comprising 1% poloxamer 407 and 15% ethanol) were prepared with the essential oil load fixed at 0.15%. […] The test solutions were used neat in this experiment. The essential oil compounds and blends were tested using the Plaque Chip Assay (PCA) method, developed in the Procter & Gamble laboratories. The PCA method measures a combination of the following parameters: antibacterial efficacy (bacteria or germ kill), biofilm dispersion efficacy/chemical removal (chemical cleaning, e.g., detergency without germ kill), biofilm prevention and/or inhibition efficacy (prevention of biofilm growth) and active substantivity (cumulative efficacy).
(§6) The PCA method uses unmodified, whole saliva (obtained from multiple healthy human donors) to grow a biofilm containing relevant oral species on the surface of hydroxyapatite (HA) discs (the ‘chip’) mounted in the cap of plastic tubes (Nunc™ Cryovial). HA chips are subjected to five one-minute treatment and re-growth cycles, designed to mimic typical oral care product usage (dentifrice, rinse, gel) over a 2½ day period. Fresh saliva is replaced after each treatment, wherein the saliva used serves both as an inoculum of relevant oral bacteria, and as a nutrient source for the growth of the biofilm. Sixteen hours after the final treatment cycle, the biofilm remaining on the chip is removed, and the number of viable bacteria contained within it are measured by standard agar plate counting on ETSA (Enriched Trypticase Soy Agar) and ETSA-NV (Enriched Trypticase Soy Agar Supplemented with Nalidixic Acid and Vancomycin) media. The number of colony forming units per unit volume (cfu/ml) is measured for Total Facultative Anaerobes (TFA) and Gram Negative Anaerobes (GNA). Results are summarized in Table 3 below reported as Log Reduction in TFA and GNA colony forming units provided by test formulations vs. control, i.e., water or base aqueous solution (comprising 1% poloxamer 407 and 15% ethanol). Reductions in TFA or GNA bacterial counts vs. control are reasonably predictive of in vivo efficacy, in particular plaque removal efficacy and breath malodor reduction. […] Particularly for blends containing 3 or more components, the relative amounts of each component can be adjusted to provide the best germ kill efficacy along with the desired flavor profile.

[9] = test system: Total Facultative Anaerobes (TFA); test: Plaque Chip Assay (PCA), Total Facultative Anaerobes count; type: cell-based, oral bacteria from whole saliva of healthy human donors; settings: vs. water
Description: as §4, §5, §6

[10] = biological target: COX-1 (Homo sapiens, UniProt P23219); test: Inhibition of host inflammation factor COX-1; type: biochemical; settings: at 200 uM for compounds, 0.001% for oils/extracts
Chain of COX-1 (P23219 24-599): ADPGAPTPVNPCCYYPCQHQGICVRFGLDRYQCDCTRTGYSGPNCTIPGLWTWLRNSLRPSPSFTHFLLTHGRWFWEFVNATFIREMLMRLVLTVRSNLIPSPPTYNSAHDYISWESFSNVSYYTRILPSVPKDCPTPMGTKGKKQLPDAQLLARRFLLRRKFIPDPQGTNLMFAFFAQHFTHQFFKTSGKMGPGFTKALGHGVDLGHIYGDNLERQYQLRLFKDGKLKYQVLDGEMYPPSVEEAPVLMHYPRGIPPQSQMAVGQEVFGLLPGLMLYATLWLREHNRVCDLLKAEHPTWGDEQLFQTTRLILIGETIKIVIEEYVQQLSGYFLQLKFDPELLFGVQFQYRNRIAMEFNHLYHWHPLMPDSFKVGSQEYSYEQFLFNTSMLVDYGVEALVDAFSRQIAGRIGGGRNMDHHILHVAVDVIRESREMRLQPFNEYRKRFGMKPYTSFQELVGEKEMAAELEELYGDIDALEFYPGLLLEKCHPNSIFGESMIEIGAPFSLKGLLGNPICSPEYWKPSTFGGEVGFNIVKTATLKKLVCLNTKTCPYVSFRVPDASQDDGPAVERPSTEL

[11] = essential oil at 0.15% solution, five one-minute treatments
[12] = at 200 uM for compounds, 0.001% for oils/extracts

Row | SMILES | inhibition at 200 µM [1] [%] | MMP (2, 3, 12) % inhibition [2] | inhibition at 200 µM [3] [%] | Total Oil Level Inhibiting Biofilm Growth (MIC), single component [4] [%] | Cystalysin % inhibition [5] | inhibition at 200 µM [6] [%] | Gingipain % inhibition [7] | Log Reduction in cfu/ml vs Control, GNA [8, 11] [log cfu/ml] | Log Reduction in cfu/ml vs Control, TFA [9, 11] [log cfu/ml] | Log Reduction in cfu/ml vs Control, GNA ([8]; 350 ppm solution) [log cfu/ml] | Log Reduction in cfu/ml vs Control, TFA ([9]; 350 ppm solution) [log cfu/ml] | inhibition at 200 µM [3, 12] [%] | inhibition at 200 µM [1, 12] [%] | inhibition at 200 µM [10] [%]
1 | Cc1ccc(C(C)C)cc1O [Carvacrol] | > 25 | + (% inhibition <25% at 200 uM for compounds, 0.001% for oils/extracts) | > 75 | 0.1 | + (% inhibition <25% at 200 uM for compounds, 0.001% for oils/extracts) | < 25 | + (% inhibition <25% at 200 uM for compounds, 0.001% for oils/extracts) | 0.42 | 0.08 | – | – | – | – | –
2 | CCCCCCCCCCCCCCCC[n+]1ccccc1 [Cetylpyridinium Chloride (CPC), Cetylpyridinium Chloride, reference compound] | – | – | – | – | – | – | – | – | – | 1.31 | 1.45 | – | – | –
3 | CC(C)=CCCC(C)=CC=O [Citral] | – | + (% inhibition <25% at 200 uM for compounds, 0.001% for oils/extracts) | – | 0.2 | – | < 25 | + (% inhibition <25% at 200 uM for compounds, 0.001% for oils/extracts) | 0.72 | 0.33 | – | – | > 50 | – | –
4 | CC12CCC(CC1)C(C)(C)O2 [Eucalyptol] | – | + (% inhibition <25% at 200 uM for compounds, 0.001% for oils/extracts) | – | 0.1 | + (% inhibition <25% at 200 uM for compounds, 0.001% for oils/extracts) | < 25 | + (% inhibition <25% at 200 uM for compounds, 0.001% for oils/extracts) | 0.38 | −0.06 | – | – | > 75 | – | –
5 | C=CCc1ccc(O)c(OC)c1 [Eugenol] | > 25 | + (% inhibition <25% at 200 uM for compounds, 0.001% for oils/extracts) | > 75 | 0.2 | + (% inhibition <25% at 200 uM for compounds, 0.001% for oils/extracts) | < 25 | + (% inhibition <25% at 200 uM for compounds, 0.001% for oils/extracts) | 0.70 | 0.09 | – | – | – | – | –
6 | CC(C)=CCC/C(C)=C/CO [Geraniol] | – | + (% inhibition <25% at 200 uM for compounds, 0.001% for oils/extracts) | – | 0.1 | + (% inhibition <25% at 200 uM for compounds, 0.001% for oils/extracts) | < 25 | – | 0.60 | 0.47 | – | – | > 25 | > 25 | > 50
7 | Cc1ccc(C(C)C)c(O)c1 [Thymol, reference compound] | – | – | – | 0.1 | – | – | – | – | – | – | – | – | – | –
